Results as given in ChEMBL document CHEMBL5674888, “PRMT5 Promotes Human Lung Cancer Cell Apoptosis via Akt/Gsk3β Signaling Induced by Resveratrol” (Cell Transplant, 2019).
Active and inactive are the calls of the source.

Columns and labels:
Format in all cases: functional, cell-based
A549 [1] = assay: Induction of apoptosis in resveratrol-induced human lung A549 cells assessed as decrease in pAkt level at Thr308 measured by immunoblotting method
A549 [2] = assay: Induction of apoptosis in resveratrol-induced human lung A549 cells assessed as decrease in Cyclin D1 level measured by immunoblotting method
ASTC-a-1 [3] = assay: Antiproliferative activity against resveratrol-induced human lung ASTC-a-1 cells at 100 nM measured after 5 days by CCK-8 assay; conditions: time 5.0 day
ASTC-a-1 [4] = assay: Induction of apoptosis in resveratrol-induced human lung ASTC-a-1 cells at 100 nM assessed as increase in cleaved caspase-3 expression measured by immunoblotting method
A549 [5] = assay: Induction of apoptosis in resveratrol-induced human lung A549 cells assessed as decrease in pAkt level at Ser473 measured by immunoblotting method
A549 [6] = assay: Induction of apoptosis in resveratrol-induced human lung A549 cells assessed as decrease in Cyclin E1 level measured by immunoblotting method
A549 [7] = assay: Induction of apoptosis in resveratrol-induced human lung A549 cells at 100 nM assessed as increase in cleaved caspase-3 expression measured by immunoblotting method
A549 [8] = assay: Induction of apoptosis in resveratrol-induced human lung A549 cells assessed as decrease in pGSK3beta level at Ser9 measured by immunoblotting method
A549 [9] = assay: Antiproliferative activity against resveratrol-induced human lung A549 cells at 100 nM measured after 5 days by CCK-8 assay; conditions: time 5.0 day

Measured: Activity

O=C(NC[C@H](O)CN1CCc2ccccc2C1)c1ccnc(NC2CCC2)c1
active: all assays above
